The NIST ThermoML archive (doi:10.1021/je1003065)

Assay: mn = molality of the nth substance listed, in mol/kg
Settings: Liquid, Vibrating tube method

[Br-].[Li+] [lithium bromide] + CCO
Settings	mass density [kg/m3]
273.09 K, 4590 kPa, m1 = 2.272	943.92
273.13 K, 30024 kPa, m1 = 0.2335	841.53
273.14 K, 5012 kPa, m1 = 0.2335	824.8
273.14 K, 29954 kPa, m1 = 2.833	990.17
273.14 K, 49926 kPa, m1 = 2.833	1001.06
273.14 K, 80014 kPa, m1 = 0.2335	868.58
273.15 K, 1023 kPa, m1 = 0.2335	821.76
273.15 K, 1024 kPa, m1 = 0.9499	866.06
273.15 K, 1024 kPa, m1 = 2.833	971.83
273.15 K, 1537 kPa, m1 = 3.368	1000.06
273.15 K, 2048 kPa, m1 = 1.462	896.66
273.15 K, 5002 kPa, m1 = 2.833	974.56
273.15 K, 5021 kPa, m1 = 0.9499	868.77
273.15 K, 10002 kPa, m1 = 0.2335	828.53
273.15 K, 10002 kPa, m1 = 0.9499	872.07
273.15 K, 10177 kPa, m1 = 2.272	947.5
273.15 K, 19956 kPa, m1 = 2.833	984.22
273.15 K, 20031 kPa, m1 = 0.2335	835.19
273.15 K, 20031 kPa, m1 = 0.9499	878.51
273.15 K, 30045 kPa, m1 = 0.9499	884.65
273.15 K, 39945 kPa, m1 = 0.2335	847.51
273.15 K, 39974 kPa, m1 = 2.833	995.79
273.15 K, 40015 kPa, m1 = 0.9499	890.49
273.15 K, 49923 kPa, m1 = 0.2335	853.22
273.15 K, 50027 kPa, m1 = 0.9499	896.06
273.15 K, 59570 kPa, m1 = 2.272	975.51
273.15 K, 60021 kPa, m1 = 2.833	1006.15
273.15 K, 60029 kPa, m1 = 0.9499	901.35
273.15 K, 69980 kPa, m1 = 2.272	980.49
273.15 K, 70002 kPa, m1 = 0.9499	906.34
273.15 K, 70003 kPa, m1 = 0.2335	863.78
273.15 K, 70035 kPa, m1 = 2.833	1010.98
273.15 K, 79857 kPa, m1 = 2.272	985.04
273.15 K, 79954 kPa, m1 = 0.9499	911.03
273.15 K, 89925 kPa, m1 = 2.272	989.55
273.15 K, 89935 kPa, m1 = 0.9499	915.46
273.15 K, 89956 kPa, m1 = 2.833	1020.12
273.15 K, 90023 kPa, m1 = 0.2335	873.07
273.15 K, 99945 kPa, m1 = 0.2335	877.21
273.15 K, 99986 kPa, m1 = 0.9499	919.63
273.15 K, 99986 kPa, m1 = 2.833	1024.57
273.16 K, 5195 kPa, m1 = 1.462	898.75
273.16 K, 10032 kPa, m1 = 2.833	977.92
273.16 K, 20027 kPa, m1 = 3.368	1011.76
273.16 K, 29980 kPa, m1 = 3.368	1017.69
273.16 K, 39977 kPa, m1 = 3.368	1023.39
273.16 K, 49994 kPa, m1 = 0.5972	875.26
273.16 K, 59884 kPa, m1 = 0.5972	880.54
273.16 K, 59985 kPa, m1 = 0.2335	858.67
273.16 K, 69990 kPa, m1 = 0.5972	885.63
273.16 K, 80061 kPa, m1 = 2.833	1015.64
273.16 K, 100090 kPa, m1 = 2.272	994.02
273.17 K, 1948 kPa, m1 = 2.272	941.72
273.17 K, 9742 kPa, m1 = 1.462	901.73
273.17 K, 10114 kPa, m1 = 3.368	1005.6
273.17 K, 19964 kPa, m1 = 0.5972	857.46
273.17 K, 20349 kPa, m1 = 2.272	953.97
273.17 K, 29947 kPa, m1 = 2.272	959.72
273.17 K, 29993 kPa, m1 = 0.5972	863.7
273.17 K, 39918 kPa, m1 = 0.5972	869.58
273.17 K, 49964 kPa, m1 = 2.272	970.63
273.17 K, 49974 kPa, m1 = 3.368	1028.82
273.17 K, 80091 kPa, m1 = 0.5972	890.43
273.17 K, 89924 kPa, m1 = 3.368	1047.9
273.17 K, 89993 kPa, m1 = 0.5972	894.84
273.17 K, 99951 kPa, m1 = 3.368	1052.03
273.18 K, 1306 kPa, m1 = 0.5972	845.06
273.18 K, 4686 kPa, m1 = 0.5972	847.38
273.18 K, 4965 kPa, m1 = 3.368	1002.3
273.18 K, 9917 kPa, m1 = 0.5972	850.91
273.18 K, 20115 kPa, m1 = 1.462	908.3
273.18 K, 29966 kPa, m1 = 1.462	914.27
273.18 K, 49922 kPa, m1 = 1.462	925.55
273.18 K, 60091 kPa, m1 = 1.462	930.87
273.18 K, 60277 kPa, m1 = 3.368	1034.14
273.18 K, 69993 kPa, m1 = 1.462	935.78
273.18 K, 69994 kPa, m1 = 3.368	1038.9
273.18 K, 79725 kPa, m1 = 3.368	1043.43
273.18 K, 80129 kPa, m1 = 1.462	940.52
273.18 K, 89963 kPa, m1 = 1.462	944.86
273.18 K, 100098 kPa, m1 = 0.5972	899.04
273.19 K, 39973 kPa, m1 = 1.462	920.07
273.19 K, 40359 kPa, m1 = 2.272	965.49
273.2 K, 99708 kPa, m1 = 1.462	948.89
293.12 K, 9790 kPa, m1 = 1.462	886.75
293.13 K, 1999 kPa, m1 = 1.462	881.23
293.13 K, 5005 kPa, m1 = 1.462	883.38
293.13 K, 19962 kPa, m1 = 1.462	893.68
293.13 K, 29997 kPa, m1 = 1.462	900.21
293.13 K, 30014 kPa, m1 = 0.2335	827.08
293.13 K, 40468 kPa, m1 = 1.462	906.69
293.13 K, 49901 kPa, m1 = 1.462	912.25
293.13 K, 59950 kPa, m1 = 3.368	1019.25
293.14 K, 5014 kPa, m1 = 0.2335	809.13
293.14 K, 10097 kPa, m1 = 3.368	989.9
293.14 K, 19953 kPa, m1 = 2.833	969.14
293.14 K, 49968 kPa, m1 = 2.833	986.92
293.14 K, 49985 kPa, m1 = 0.2335	839.79
293.14 K, 59817 kPa, m1 = 0.5972	867.48
293.14 K, 60137 kPa, m1 = 1.462	917.97
293.14 K, 69946 kPa, m1 = 3.368	1024.25
293.14 K, 69979 kPa, m1 = 0.5972	872.97
293.14 K, 69979 kPa, m1 = 1.462	923.18
293.14 K, 79675 kPa, m1 = 0.5972	877.88
293.15 K, 1003 kPa, m1 = 0.2335	805.64
